In assay [1] the test system is LHON 14459 mutation lymphoblasts. The assay can be described thus: Microphysiometry of LHON cells, 14459 mutation. Format: cell-based, human. As to conditions: LHON 14459 mutation cells compared with control; FIG. 4A-4E. From the text: (§1) The rate at which cells excrete protons (the acidification rate) is closely linked to the rate at which they convert nutrients to energy. Because energy metabolism is coupled to ATP consumption, any event that perturbs ATP levels, such as receptor activation or calcium influx, causes a change in energy metabolism and, therefore, an alteration in proton excretion. In addition, receptor activation may also directly affect proton excretion by altering Na/H exchange. A typical microphysiometer, such as the Cytosensor™ (Molecular Devices), uses a silicon-based sensor to measure the rate of proton excretion from 10^4-10^6 cells. Cells are contained in a 3 μL flow chamber in aqueous contact with the pH-sensitive surface of a light-sensitive potentiometric sensor. Flow of medium (with low buffering capacity) and test compounds are determined by a series of microprocessor-controlled pumps. The extracellular acidification rate is determined by measuring the decrease in pH that occurs as acidic metabolites accumulate during brief halts in the flow of medium. The degree of stimulation of the basal acidification is calculated and plotted as a per cent of the basal acidification rate. The sensor takes a voltage measurement that is linearly related to pH. Typically, during a 30-60 sec halt in flow, pH will decrease less than 0.1 pH unit. Reproducible and robust responses are obtained to metabolic inhibitors, growth factors and ionophores in lymphoblast lines. Because virtually any manipulation alters proton excretion, it is relatively easy to determine the types of stimuli to which disease cell lines respond abnormally.
(§2) LHON: Previous work at Emory University has identified causative mitochondrial DNA mutations in LHON patients. Well-characterized LHON patient cell lines have been generated and banked. These cell lines have been characterized by molecular genetic, cellular respiration and enzymology studies. The patient cell lines were obtained from the Emory University Clinical Research Center (Emory University, Atlanta, Ga.).
(§3) Patient lymphocytes are immortalized using the technique of Neitzel H, Human Genetics 73:320-326 (1986). In brief, the lymphocytes are removed from the buffy coat layer following Histopaque density separation. […]
(§4) Lymphoblasts are suspended in agarose entrapment solution at a density of 5×10^5 cells/10 μl, then are plated onto chamber inserts, and allowed to solidify for 20 minutes. […] The rate of acidification is calculated as the slope of a linear least squares fit to the relation of pH versus time during the pump's off period. […]

The subject of the next assay is PD lymphoblasts. The experiment in a line: Microphysiometry of PD lymphoblasts. Format: cell-based, human. As to conditions: PD lymphoblasts compared with controls; FIG. 5A-5D.
Source text: as §1, with “abnormally. […]” for “abnormally.”
as §4

A further assay deals with sporadic AD lymphoblasts. The experiment in a line: Microphysiometry (acidification rate) of sporadic AD lymphoblasts. Format: cell-based, human. The following applies: sporadic AD lymphoblasts compared with controls; FIG. 1A-1D.
Source text: as §1, with “Because virtually any manipulation alters proton excretion, it is relatively easy to determine the types of stimuli to which disease cell lines respond abnormally.” left out
Alzheimer's disease: Lymphoblast cell lines were generated from blood samples obtained from patients followed in the Emory Alzheimer's Disease Center. All patients have been evaluated by detailed neurological and neuropsychometric examinations. […]
as §4

In assay [2] the test system is LHON 3460 mutation lymphoblasts. The experiment in a line: Microphysiometry of LHON cells, 3460 mutation. Format: cell-based, human. The following applies: LHON 3460 mutation cells compared with control; FIG. 4A-4E.
Source text: as §1, §2, §3, §4

In assay [3] the test system is PC12 cells transfected with two mutant forms of PS1. The assay is classed as cell-based, Rat. The following applies: PC12 cells transfected with mutant presenilin-1; FIG. 2A-2D.
Source text: as §1
Rat adrenal pheochromocytoma PC 12 cells were stably transfected with PS1 cDNA cloned behind the CMV promoter in pcDNA3. See, e.g., Lah, J. J. et al., J. Neurosci. […]
as §4

Another assay deals with control cells. The experiment in a line: Microphysiometry of control cells, ionomycin response after rotenone. Format: cell-based, human. As to conditions: control cells exposed to rotenone; FIG. 3.
Source text: as §1, with “Cells are contained in a 3 μL flow chamber in aqueous contact with the pH-sensitive surface of a light-sensitive potentiometric sensor.” left out, “The sensor takes a voltage measurement that is linearly related to pH. Typically, during a 30-60 sec halt in flow, pH will decrease less than 0.1 pH unit. Reproducible and robust responses are obtained to metabolic inhibitors, growth factors and ionophores in lymphoblast lines. Because virtually any manipulation alters proton excretion, it is relatively easy to determine the types of stimuli to which disease cell lines respond abnormally.” left out
as §4

In the next assay the test system is HD fibroblasts. The experiment in a line: Microphysiometry of HD cells. The assay is classed as cell-based, human. The following applies: HD cells compared with control cells; FIG. 3.

Consider six compounds from patent US20020086281A1, “Detection of neurodegenerative diseases, in vitro screening assays” (priority 1998, published 2002).

In the case of antimycin-A, the “microphysiometric response to the inhibitor or ionophore” value in assay [1] and in assay [2] was “markedly depressed” each time. Moreover, the “microphysiometric response to the inhibitor” value in the assay on PD lymphoblasts is listed as “do not differ substantially from controls”. In addition, in the assay with sporadic AD lymphoblasts, the “microphysiometric response (stimulation of acidification rate) to the inhibitor” value is listed as “markedly blunted”.
On to `CN(C)C(=O)Nc1ccc(Cl)c(Cl)c1` [diuron], for which the “microphysiometric response to the inhibitor” value in assay [3] is reported as “similarly depressed response”.
`C=C(C)[C@H]1Cc2c(ccc3c2O[C@@H]2COc4cc(OC)c(OC)cc4[C@@H]2C3=O)O1` [rotenone]: in the assay with control cells, the “reproduction of the HD-type altered response to ionomycin” value is on record as “can be reproduced in control cells”. For the same compound, the “microphysiometric response to the inhibitor or ionophore” value is given as “markedly depressed” in assay [1] and “virtually absent” in assay [2]. The “microphysiometric response to the inhibitor” value in the assay on PD lymphoblasts is “markedly blunted”; in assay [3], “similarly depressed response”. Moreover, the “microphysiometric response (stimulation of acidification rate) to the inhibitor” value in the assay with sporadic AD lymphoblasts is “markedly blunted”.
On to `O=C(CC(=O)C(F)(F)F)c1cccs1` [TTFA, Thenoyltrifluoroacetone], for which the “microphysiometric response to the inhibitor or ionophore” value was “no difference between control and patient lymphoblast responses” in assay [1]; “no difference between control and patient lymphoblast responses” in assay [2].
Take `O=C(O)CC(=O)O` [malonate]: the “microphysiometric response to the inhibitor” value in the assay with PD lymphoblasts is “do not differ substantially from controls”; in assay [3], “normal response”. The “microphysiometric response (stimulation of acidification rate) to the inhibitor” value with sporadic AD lymphoblasts is “do not differ substantially from controls”.
Turning to `C[C@H](CCC(=O)O)C[C@H](C)C[C@H](C)C(=O)/C=C(\O)[C@H](C)C[C@H](C)C/C=C/[C@@H](C)[C@@H](O)[C@@H](C)[C@@H](O)C[C@@H]1CC[C@@](C)([C@H]2CC[C@@](C)([C@@H](C)O)O2)O1` [ionomycin], the “microphysiometric response to the inhibitor or ionophore” value in assay [1] and in assay [2] was “abnormal” throughout. In the assay on HD fibroblasts, the “microphysiometric response to the calcium ionophore” value was “abnormal responses”.
